According to BindingDB's records for doi:10.1021/jm00078a018 (Merck Research Laboratories, 1994):

Assay: Inhibition of binding of [125I]-CCK-8 to the cholecystokinin type B receptor

**Q.** For `CCOC(=O)CCN1C(=O)C(NC(=O)Nc2ccc(Cl)cc2)N=C(c2ccccc2)c2ccccc21` (configuration not stated) [3-{3-[3-(4-Chloro-phenyl)-ureido]-2-oxo-5-phenyl-2,3-dihydro-benzo[e][1,4]diazepin-1-yl}-propionic acid ethyl ester], which IC50 is on record?
**A.** Its IC50 is 5.9 nM.

**Q.** For `COc1cccc(NC(=O)NC2N=C(c3ccccc3)c3ccccc3N(CC[N+](C)(C)C)C2=O)c1` (configuration not stated) [(2-{3-[3-(3-Methoxy-phenyl)-ureido]-2-oxo-5-phenyl-2,3-dihydro-benzo[e][1,4]diazepin-1-yl}-ethyl)-trimethyl-ammonium; iodide], which IC50 is on record?
**A.** Its IC50 is 1100 nM.

**Q.** For `CCN(CC)C(=O)CN1C(=O)C(NC(=O)Nc2ccccc2Cl)N=C(c2ccccc2)c2ccccc21` (configuration not stated) [2-{3-[3-(2-Chloro-phenyl)-ureido]-2-oxo-5-phenyl-2,3-dihydro-benzo[e][1,4]diazepin-1-yl}-N,N-diethyl-acetamide], which IC50 is on record?
**A.** Its IC50 is 3.8 nM.

**Q.** With `C#Cc1cccc(NC(=O)NC2N=C(c3ccccc3)c3ccccc3N(C)C2=O)c1` (configuration not stated) [1-(3-Ethynyl-phenyl)-3-(1-methyl-2-oxo-5-phenyl-2,3-dihydro-1H-benzo[e][1,4]diazepin-3-yl)-urea] as the compound, how does the IC50 read?
**A.** The IC50 was 22 nM.

**Q.** Which IC50 does the source give for `CN1C(=O)[C@H](NC(=O)NCc2cccc(O)c2)N=C(c2ccccc2)c2ccccc21` here?
**A.** The IC50 was 19 nM.

**Q.** With `CN1C(=O)[C@H](NC(=O)Nc2cccc(Cl)c2)N=C(c2ccccc2)c2ccccc21` as the compound, how does the IC50 read?
**A.** The IC50 was 7.5 nM.

**Q.** For `CN1C(=O)C(NC(=O)Nc2cccc(C(F)(F)F)c2)N=C(c2ccccc2)c2ccccc21` (configuration not stated) [1-(1-Methyl-2-oxo-5-phenyl-2,3-dihydro-1H-benzo[e][1,4]diazepin-3-yl)-3-(3-trifluoromethyl-phenyl)-urea], which IC50 is on record?
**A.** Its IC50 is 3.8 nM.

**Q.** With `CN1C(=O)[C@H](NC(=O)c2ccc(C(F)(F)F)cc2)N=C(c2ccccc2)c2ccccc21` as the compound, how does the IC50 read?
**A.** Its IC50 is 3300 nM.

**Q.** For `CN1C(=O)C(NC(=O)NCc2cccc(C(C)(C)O)c2)N=C(c2ccccc2)c2ccccc21` (configuration not stated) [1-[3-(1-Hydroxy-1-methyl-ethyl)-benzyl]-3-(1-methyl-2-oxo-5-phenyl-2,3-dihydro-1H-benzo[e][1,4]diazepin-3-yl)-urea], which IC50 is on record?
**A.** The IC50 was 5.9 nM.

**Q.** Which IC50 does the source give for `O=C(Nc1ccc(Cl)cc1)NC1N=C(c2ccccc2)c2ccccc2N(C[C@@H](O)CN2CCCC2)C1=O` (some centres not stated) [1-(4-Chloro-phenyl)-3-[1-(2-hydroxy-3-pyrrolidin-1-yl-propyl)-2-oxo-5-phenyl-2,3-dihydro-1H-benzo[e][1,4]diazepin-3-yl]-urea] here?
**A.** Its IC50 is 300 nM.

**Q.** For `Cc1ccc(NC(=O)NC2N=C(c3ccccc3)c3ccccc3N(CC(=O)Nc3ccncc3)C2=O)cc1` (configuration not stated) [2-[2-Oxo-5-phenyl-3-(3-p-tolyl-ureido)-2,3-dihydro-benzo[e][1,4]diazepin-1-yl]-N-pyridin-4-yl-acetamide], which IC50 is on record?
**A.** The IC50 was 190 nM.

**Q.** Which IC50 does the source give for `CN1C(=O)C(NC(=O)Nc2ccc(Cl)cc2)N=C(c2ccccc2)c2ccccc21` [(R)-1-(4-Chloro-phenyl)-3-(1-methyl-2-oxo-5-phenyl-2,3-dihydro-1H-benzo[e][1,4]diazepin-3-yl)-urea] here?
**A.** Its IC50 is 81 nM.

**Q.** With `CN1C(=O)C(NC(=O)Nc2ccc3c(c2)OCO3)N=C(c2ccccc2)c2ccccc21` (configuration not stated) [1-Benzo[1,3]dioxol-5-yl-3-(1-methyl-2-oxo-5-phenyl-2,3-dihydro-1H-benzo[e][1,4]diazepin-3-yl)-urea] as the compound, how does the IC50 read?
**A.** The IC50 was 26 nM.

**Q.** With `CN1C(=O)C(NC(=O)Nc2ccccn2)N=C(c2ccccc2)c2ccccc21` (configuration not stated) [1-(1-Methyl-2-oxo-5-phenyl-2,3-dihydro-1H-benzo[e][1,4]diazepin-3-yl)-3-pyridin-2-yl-urea] as the compound, how does the IC50 read?
**A.** The IC50 was 337 nM.

**Q.** For `O=C(Nc1ccc(Cl)cc1)NC1N=C(c2ccccc2)c2ccccc2N(CC(=O)N2CCCC2)C1=O` (configuration not stated), which IC50 is on record?
**A.** Its IC50 is 1.6 nM.

**Q.** With `COc1cccc(NC(=O)N[C@@H]2N=C(c3ccccc3)c3ccccc3N(C)C2=O)c1` as the compound, how does the IC50 read?
**A.** Its IC50 is 2.2 nM.

**Q.** Which IC50 does the source give for `CN1C(=O)[C@H](NC(=O)Nc2cccc(Br)c2)N=C(c2ccccc2)c2ccccc21` here?
**A.** Its IC50 is 3.8 nM.

**Q.** With `CN1C(=O)C(NC(N)=O)N=C(c2ccccc2)c2ccccc21` (configuration not stated) [(1-Methyl-2-oxo-5-phenyl-2,3-dihydro-1H-benzo[e][1,4]diazepin-3-yl)-urea] as the compound, how does the IC50 read?
**A.** Its IC50 is over 100000 nM.

**Q.** For `CN1C(=O)C(NC(=O)Nc2ccc(C(F)(F)F)cc2)N=C(c2ccccc2)c2ccccc21` (configuration not stated) [1-(1-Methyl-2-oxo-5-phenyl-2,3-dihydro-1H-benzo[e][1,4]diazepin-3-yl)-3-(4-trifluoromethyl-phenyl)-urea], which IC50 is on record?
**A.** The IC50 was 5.7 nM.

**Q.** For `CN1CCN(C(=O)CN2C(=O)C(NC(=O)Nc3ccc(Cl)cc3)N=C(c3ccccc3)c3ccccc32)CC1` (configuration not stated) [1-(4-Chloro-phenyl)-3-{1-[2-(4-methyl-piperazin-1-yl)-2-oxo-ethyl]-2-oxo-5-phenyl-2,3-dihydro-1H-benzo[e][1,4]diazepin-3-yl}-urea], which IC50 is on record?
**A.** Its IC50 is 0.8 nM.

**Q.** Which IC50 does the source give for `O=C(Nc1ccc(Cl)cc1)NC1N=C(c2ccccc2)c2ccccc2N(C[C@@H](O)CO)C1=O` (some centres not stated) [1-(4-Chloro-phenyl)-3-[1-(2,3-dihydroxy-propyl)-2-oxo-5-phenyl-2,3-dihydro-1H-benzo[e][1,4]diazepin-3-yl]-urea] here?
**A.** Its IC50 is 104 nM.

**Q.** For `CN1C(=O)C(NC(=O)Nc2ccc3ccccc3n2)N=C(c2ccccc2)c2ccccc21` (configuration not stated) [1-(1-Methyl-2-oxo-5-phenyl-2,3-dihydro-1H-benzo[e][1,4]diazepin-3-yl)-3-quinolin-2-yl-urea], which IC50 is on record?
**A.** Its IC50 is 26 nM.

**Q.** Which IC50 does the source give for `CN1C(=O)C(NC(=O)Nc2cccc(-c3ccccc3)c2)N=C(c2ccccc2)c2ccccc21` (configuration not stated) [1-Biphenyl-3-yl-3-(1-methyl-2-oxo-5-phenyl-2,3-dihydro-1H-benzo[e][1,4]diazepin-3-yl)-urea] here?
**A.** Its IC50 is 112 nM.

**Q.** Which IC50 does the source give for `CN1C(=O)C(NC(=O)Nc2ccc3ncccc3c2)N=C(c2ccccc2)c2ccccc21` (configuration not stated) [1-(1-Methyl-2-oxo-5-phenyl-2,3-dihydro-1H-benzo[e][1,4]diazepin-3-yl)-3-quinolin-6-yl-urea] here?
**A.** The IC50 was 52 nM.

**Q.** Which IC50 does the source give for `CN1C(=O)C(NC(=O)Nc2ccccc2)N=C(c2ccccc2)c2ccccc21` (configuration not stated) [1-(1-Methyl-2-oxo-5-phenyl-2,3-dihydro-1H-benzo[e][1,4]diazepin-3-yl)-3-phenyl-urea] here?
**A.** Its IC50 is 32 nM.

**Q.** For `Cc1cccc(NC(=O)NC2N=C(c3ccncc3)c3ccccc3N(C)C2=O)c1` (configuration not stated) [1-(1-Methyl-2-oxo-5-pyridin-4-yl-2,3-dihydro-1H-benzo[e][1,4]diazepin-3-yl)-3-m-tolyl-urea], which IC50 is on record?
**A.** The IC50 was 52 nM.

**Q.** For `CN1C(=O)[C@H](NC(=O)Nc2cccc(CN)c2)N=C(c2ccccc2)c2ccccc21`, which IC50 is on record?
**A.** The IC50 was 719 nM.

**Q.** For `CN1C(=O)[C@H](NC(=O)Nc2cccc(I)c2)N=C(c2ccccc2)c2ccccc21`, which IC50 is on record?
**A.** Its IC50 is 6.9 nM.

**Q.** With `CCN(CC)C[C@H](O)CN1C(=O)C(NC(=O)Nc2ccc(Cl)cc2)N=C(c2ccccc2)c2ccccc21` (some centres not stated) [1-(4-Chloro-phenyl)-3-[1-(3-diethylamino-2-hydroxy-propyl)-2-oxo-5-phenyl-2,3-dihydro-1H-benzo[e][1,4]diazepin-3-yl]-urea] as the compound, how does the IC50 read?
**A.** Its IC50 is 410 nM.

**Q.** For `CCNC(=O)CN1C(=O)C(NC(=O)Nc2ccc(Cl)cc2)N=C(c2ccccc2)c2ccccc21` (configuration not stated) [2-{3-[3-(4-Chloro-phenyl)-ureido]-2-oxo-5-phenyl-2,3-dihydro-benzo[e][1,4]diazepin-1-yl}-N-ethyl-acetamide], which IC50 is on record?
**A.** Its IC50 is 11 nM.

**Q.** With `COc1cccc(NC(=O)NC2N=C(c3ccccc3)c3ccccc3N(CCC(=O)O)C2=O)c1` (configuration not stated) [3-{3-[3-(3-Methoxy-phenyl)-ureido]-2-oxo-5-phenyl-2,3-dihydro-benzo[e][1,4]diazepin-1-yl}-propionic acid] as the compound, how does the IC50 read?
**A.** Its IC50 is 250 nM.

**Q.** With `O=C(Nc1ccc(Cl)cc1)N[C@@H]1N=C(c2ccccc2)c2ccccc2N(CC(=O)N2CCCC2)C1=O` as the compound, how does the IC50 read?
**A.** Its IC50 is 1.4 nM.
